Consider 2 compounds from US12365675B2, “Stable heavy isotopes in amide functional groups and uses thereof” (RISEN (SUZHOU) PHARMA TECH CO., LTD., priority 2020, dated 2025).

Data set [1] is described as follows: Pharmacokinetic studies in beagle dogs, single oral dose. It counts as in vivo. Particulars: for CLz/F: single oral dose 2.5 mg/kg each, co-administered, plasma. The procedure:
Male and female beagle dogs (n=4; 2 males and 2 females) were used in the study. A single oral dose of Alpelisib (2.5 mg/kg) and Compound 1 (^18O1-Alpelisib) (2.5 mg/kg) were co-administered (at a total dose of 5 mg/kg) in DMSO and 0.5% carboxymethyl cellulose sodium (CMC-Na) aqueous solution (5:95, v/v). Blood samples were collected for analysis of Alpelisib and ^18O1-Alpelisib at 0.25, 0.5, 1, 1.5, 2, 3, 4, 6, 8, 10, 12 and 24 h. In FIG. 4, lines labelled with -∘- and -Δ- represent the plasma concentrations of Alpelisib-^18O1 and Alpelisib, respectively, following oral administration of the same dose of Alpelisib-^18O1 and Alpelisib to the animals.

The nature of data set [2]: Pharmacokinetic studies in Sprague Dawley (SD) rats, oral gavage. Format: in vivo. Particulars: both doses tested (2.5 and 0.322 mg/kg), greatest effect at low dose. The procedure: (a) SD rats, six in a group (n=6), were grouped randomly. Compound 1 (Alpelisib-^18O1) and Alpelisib were mixed and adjusted to 1:1 molar ratio in dosing solution (1.25 mg/mL); and the dosing solution was administered to the animals, via oral gavage, at a dose level of 2.5 mg/kg. Blood samples were collected at pre-set time points following drug administration, at 0.167, 0.5, 1, 2, 3, 4, 6, 8, and 24 hours (h). The blood samples were converted to plasma samples using standard techniques, and the latter samples were analyzed to determine the concentrations of Compound 1 and Alpelisib. In FIG. 1a, lines labelled with -∘- and --Δ-- represent the plasma concentrations of Alpelisib-^18O1 and Alpelisib, respectively, following oral administration of the same molar dose of Alpelisib-^18O1 and Alpelisib to the animals.
(b) Similarly, Compound 1 (Alpelisib-^18O1) and Alpelisib were administered to the animals (SD rats, n=4), via oral gavage, at a low dose (dose level of 0.322 mg/kg). Blood samples were collected at pre-set time points following drug administration, at 0.167, 0.5, 1, 2, 4, 6, 8, 10 and 24 hours (h). The blood samples were converted to plasma samples using standard techniques, and the latter samples were analyzed to determine the concentrations of Compound 1 and Alpelisib. […]

A short description of data set [3]: Pharmacokinetic studies in ICR mice, oral gavage. Particulars: same dose. Format: in vivo. The protocol: ICR mice, 48, in 6 groups (n=8), were grouped randomly. Compound 1 (Alpelisib-^18O1) and Alpelisib were mixed and adjusted to 1:1 molar ratio in dosing solution (1.25 mg/mL); and the dosing solution was administered to the animals, via oral gavage, at a dose level of 2.5 mg/kg. Blood samples were collected (a group of 8 animals for each time point) at time points, after dosing, at 0.5, 1, 2, 4, 8, and 12 h. The blood samples were converted to plasma samples using standard techniques, and the latter samples were analyzed to determine the concentrations of Compound 1 and Alpelisib. In FIG. 2, lines labelled with -∘- and --Δ-- represent the plasma concentrations of Alpelisib-^18O1 and Alpelisib, respectively, following oral administration of the same dose of Alpelisib-^18O1 and Alpelisib to the animals.

Data set [4] can be described thus: M4 and M4-18O1 production in liver S9 culture media. Format: in vitro ADME, monkey, human, mini pig, Wistar rat. The protocol:
Stock solution (50 μL) containing equal molar concentration of Alpelisib and Alpelisib-^18O1 was diluted with pre-warmed (37° C., water bath) 0.1 M Tris-Acetate buffer; and the concentration of each compound in this working solution was 4.5 μM. In each incubation well were added the above working solution (50 μL) and a liver S9 solution (50 μL), mixed well. The sample was pre-incubated for 5 min, following by addition, to each well, of β-NADPH dosing solution (100 μL). The sample plate was incubated at 37° C., and analyzed at time points of 0, 15, 30, 60, and 240 min., in triplicates. Sample analysis: at a pre-set time-point, a stop solution (800 μL, acetonitrile) was added to each well; the sample was well-mixed (Vortex), and centrifuged at 12000 rpm for 5 minutes; the supernatant was transferred to analytical sample vial, and then analyzed with LC-MS/MS, for M4 and M4-^18O1. […] Liver S9 used in the experiment: (a) monkey liver S9, (b) pooled human S9, (c) mini pig liver S9, and (d) male Wistar rat Liver S9.

For the compound `Cc1nc(NC(=O)N2CCC[C@H]2C(N)=O)sc1-c1ccnc(C(C)(C)C(F)(F)F)c1` [Alpelisib, N-(4-methyl-5-(2-(2,2,2-trifluoro-1,1-dimethylethyl)-4-pyridinyl)-2-thiazolyl)aminocarbonyl-L-prolinamide, reference compound], in data set [1], the CLz/F worked out at 6.83 mL/min/kg.
For the compound `Cc1nc(NC(=O)N2CCC[C@H]2C(N)=[18O])sc1-c1ccnc(C(C)(C)C(F)(F)F)c1` [Compound 1, N-(4-methyl-5-(2-(2,2,2-trifluoro-1,1-dimethylethyl)-4 pyridinyl)-2-thiazolyl)aminocarbonyl-L-prolin-^18O-amide], the “plasma concentration compared with Alpelisib” value is “higher than for Alpelisib” in data set [2]; “higher than for Alpelisib” in data set [3]; “higher than for Alpelisib” in data set [1] (oral, same dose). Moreover, the CLz/F in data set [1] was 6.33 mL/min/kg. Further, the “concentration of the metabolite M4-18O1 compared to that of M4 from alpelisib” value in data set [4] (liver S9 (monkey, pooled human, mini pig, male Wistar rat), 37° C., β-NADPH, 0-240 min, equimolar co-incubation) is listed as “decreased”. For the same compound, the “metabolism compared to that of Alpelisib” value in data set [4] (liver S9 incubation, taken together with PK results) was “reduced”.
